Measured values published in ChEMBL document CHEMBL1201862, “PubChem BioAssay data set” (2004).
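Following 48 hours of exposure in 96-well plates, responses at five concentrations were used to interpolate endpoints linearly. Abbreviation: GI50, concentration required for 50% inhibition of growth.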 Active and inactive are the calls of the source. Cut-off read from the data, not from the text of the source: active = GI50 up to about 1.1 µM and inactive = higher.

Experiments:
Assay in all cases: NCI anticancer screen, dose series, 48 h
MCF7 = test system: MCF7
SK-MEL-2 = test system: SK-MEL-2
U-251 = test system: U-251
SNB-75 = test system: SNB-75
OVCAR-5 = test system: OVCAR-5
SW-620 = test system: SW-620
MDA-N = test system: MDA-N
LOX IMVI = test system: LOX IMVI
NCI/ADR-RES = test system: NCI/ADR-RES
EKVX = test system: EKVX
Hs-578T = test system: Hs-578T
ACHN = test system: ACHN
HCT-116 = test system: HCT-116
SN12C = test system: SN12C
K562 = test system: K562
NCI-H226 = test system: NCI-H226
MOLT-4 = test system: MOLT-4
CCRF-CEM = test system: CCRF-CEM

SMILES	GI50 (MCF7)	GI50 (SK-MEL-2)	GI50 (U-251)	GI50 (SNB-75)	GI50 (OVCAR-5)	GI50 (SW-620)	GI50 (MDA-N)	GI50 (LOX IMVI)	GI50 (NCI/ADR-RES)	GI50 (EKVX)	GI50 (Hs-578T)	GI50 (ACHN)	GI50 (HCT-116)	GI50 (SN12C)	GI50 (K562)	GI50 (NCI-H226)	GI50 (MOLT-4)	GI50 (CCRF-CEM)
CC1=CC(c2ccccc2)OP1(=O)c1ccccc1 (centres undefined)	> 100 µM (inactive)	> 100 µM (inactive)	> 100 µM (inactive)	> 100 µM (inactive)	> 100 µM (inactive)	> 100 µM (inactive)	> 100 µM (inactive)	> 100 µM (inactive)	> 100 µM (inactive)	> 100 µM (inactive)	> 100 µM (inactive)	> 100 µM (inactive)	> 100 µM (inactive)	> 100 µM (inactive)	> 100 µM (inactive)	> 100 µM (inactive)		
Cc1cc(C)nc(NC(=O)COc2ccc(Cl)cc2)c1	85.7 µM (inactive)	> 100 µM (inactive)	> 100 µM (inactive)	> 100 µM (inactive)	> 100 µM (inactive)	> 100 µM (inactive)	> 100 µM (inactive)	> 100 µM (inactive)	66.4 µM (inactive)	> 100 µM (inactive)	> 100 µM (inactive)	> 100 µM (inactive)	> 100 µM (inactive)	> 100 µM (inactive)	> 100 µM (inactive)	> 100 µM (inactive)	56.6 µM (inactive)	
C(=N\C12CC3CC(CC(C3)C1)C2)/C1CCCCC1	> 100 µM (inactive)	> 100 µM (inactive)	> 100 µM (inactive)	> 100 µM (inactive)	> 100 µM (inactive)	> 100 µM (inactive)	> 100 µM (inactive)		> 100 µM (inactive)	> 100 µM (inactive)	> 100 µM (inactive)	> 100 µM (inactive)	> 100 µM (inactive)	> 100 µM (inactive)	> 100 µM (inactive)	> 100 µM (inactive)	> 100 µM (inactive)	> 100 µM (inactive)
O=C(/C=C/c1ccccc1)OCC1=C[C@@H](O)[C@@H]2C=CO[C@@H](OC3OC(CO)C(O)C(O)C3O)[C@H]12 (some centres undefined)	> 100 µM (inactive)	> 100 µM (inactive)	> 100 µM (inactive)	> 100 µM (inactive)	> 100 µM (inactive)	> 100 µM (inactive)	> 100 µM (inactive)	> 100 µM (inactive)	> 100 µM (inactive)	> 100 µM (inactive)	> 100 µM (inactive)	> 100 µM (inactive)	> 100 µM (inactive)	> 100 µM (inactive)		> 100 µM (inactive)	> 100 µM (inactive)	> 100 µM (inactive)
O=C(C/N=C(\CN(c1ccccc1)c1ccccc1)Oc1c(Cl)cc(Cl)cc1Cl)N1c2ccccc2Sc2ccccc21	32.3 µM (inactive)		53.5 µM (inactive)	22.3 µM (inactive)	30.4 µM (inactive)	65 µM (inactive)	51.1 µM (inactive)		57.9 µM (inactive)	> 100 µM (inactive)	50.9 µM (inactive)	39.9 µM (inactive)	34.9 µM (inactive)	47.8 µM (inactive)	> 10 µM (inactive)	24.4 µM (inactive)	30.6 µM (inactive)	41.8 µM (inactive)
CN(CCc1ccccn1)C(=S)N/N=C/c1ccccn1	< 0.01 µM (active)	0.0168 µM (active)		7.5 µM (inactive)	0.0238 µM (active)	0.0916 µM (active)	0.551 µM (active)	0.07 µM (active)	< 0.0201 µM (active)	0.102 µM (active)	20 µM (inactive)	0.0366 µM (active)	< 0.01 µM (active)	0.111 µM (active)	< 0.01 µM (active)	0.0516 µM (active)	< 0.01 µM (active)	< 0.01 µM (active)
COc1ccc(C2OC2C(=O)C23CC4CC(CC(C4)C2)C3)cc1 (centres undefined)	47.9 µM (inactive)		36.1 µM (inactive)	> 10 µM (inactive)	> 100 µM (inactive)	> 100 µM (inactive)	37.8 µM (inactive)	19.1 µM (inactive)	> 100 µM (inactive)	> 100 µM (inactive)	13.6 µM (inactive)	> 100 µM (inactive)	58.6 µM (inactive)	36.8 µM (inactive)	27.2 µM (inactive)	> 100 µM (inactive)	47.1 µM (inactive)	60.7 µM (inactive)
CNC1(C(=O)O)CC1	> 100 µM (inactive)		> 100 µM (inactive)		> 100 µM (inactive)	> 100 µM (inactive)	> 100 µM (inactive)	> 100 µM (inactive)	> 100 µM (inactive)	> 100 µM (inactive)	> 100 µM (inactive)	> 100 µM (inactive)	> 100 µM (inactive)	> 100 µM (inactive)	> 100 µM (inactive)	> 100 µM (inactive)	> 100 µM (inactive)	> 100 µM (inactive)
CN(C)Cc1cc(C(=O)/C=C/c2c(Cl)cccc2Cl)cc(CN(C)C)c1O	3.71 µM (inactive)		11.4 µM (inactive)	3.34 µM (inactive)	18.2 µM (inactive)	4.12 µM (inactive)	3.67 µM (inactive)	1.77 µM (inactive)	4.57 µM (inactive)	10.9 µM (inactive)	14 µM (inactive)	2.8 µM (inactive)	6.04 µM (inactive)	5.82 µM (inactive)	3.01 µM (inactive)	14.4 µM (inactive)	4.19 µM (inactive)	3.74 µM (inactive)
NC(=O)C1CCCNC1 (centres undefined)	> 100 µM (inactive)	> 100 µM (inactive)	> 100 µM (inactive)	> 100 µM (inactive)	> 100 µM (inactive)	> 100 µM (inactive)	> 100 µM (inactive)	> 100 µM (inactive)	> 100 µM (inactive)	> 100 µM (inactive)	> 100 µM (inactive)	> 100 µM (inactive)	> 100 µM (inactive)	> 100 µM (inactive)		> 100 µM (inactive)	24.3 µM (inactive)	> 100 µM (inactive)
COC(=O)C1=C(O)C(C(=O)OC)[C@]2(O)[C@H](C(=O)OC)[C@H]1C[C@@H](c1ccc(O)cc1)[C@H]2C(=O)OC (some centres undefined)	22.6 µM (inactive)		18.3 µM (inactive)	20 µM (inactive)	23.8 µM (inactive)	50.7 µM (inactive)	20.1 µM (inactive)	29.2 µM (inactive)	30.1 µM (inactive)	32.3 µM (inactive)	26.1 µM (inactive)	36.4 µM (inactive)	27.7 µM (inactive)	17.7 µM (inactive)	22.8 µM (inactive)	44.4 µM (inactive)	30.3 µM (inactive)	54 µM (inactive)
COc1ccc2c(c1)N=C1CSC(c3cccc(Br)c3)N1C2 (centres undefined)	6.59 µM (inactive)	17.6 µM (inactive)	17.5 µM (inactive)	15.5 µM (inactive)	18.8 µM (inactive)	25.5 µM (inactive)	11.5 µM (inactive)	18.5 µM (inactive)	6.98 µM (inactive)	13.2 µM (inactive)	26.3 µM (inactive)	13.3 µM (inactive)	10.8 µM (inactive)	19.5 µM (inactive)	3.85 µM (inactive)	22.9 µM (inactive)	2.99 µM (inactive)	
CC(=O)OC1C[C@@H](C)C2(C[C@H](O)c3ccoc3)C(=O)OC[C@]13C2CCC(O)C31CO1 (some centres undefined)	> 100 µM (inactive)	> 100 µM (inactive)	> 100 µM (inactive)	> 100 µM (inactive)	> 100 µM (inactive)		> 100 µM (inactive)	> 100 µM (inactive)	> 100 µM (inactive)		> 100 µM (inactive)	> 100 µM (inactive)	> 100 µM (inactive)	> 100 µM (inactive)	> 100 µM (inactive)	> 100 µM (inactive)	> 100 µM (inactive)	> 100 µM (inactive)
Cc1c(C#N)c(N)n(C2OCC(O)C(O)C2O)c(=S)c1C#N (centres undefined)	> 100 µM (inactive)	21.4 µM (inactive)		83.4 µM (inactive)	> 100 µM (inactive)	> 100 µM (inactive)	> 100 µM (inactive)	> 100 µM (inactive)	> 100 µM (inactive)		24.5 µM (inactive)	> 100 µM (inactive)		> 100 µM (inactive)	> 100 µM (inactive)	> 100 µM (inactive)	> 100 µM (inactive)	> 100 µM (inactive)
CC1=CC(=O)/C(=C/NC(N)=S)C(=O)O1	> 100 µM (inactive)	50.2 µM (inactive)	> 100 µM (inactive)	48.1 µM (inactive)	> 100 µM (inactive)	> 100 µM (inactive)	> 100 µM (inactive)		> 100 µM (inactive)	> 100 µM (inactive)	> 100 µM (inactive)	> 100 µM (inactive)	> 100 µM (inactive)	> 100 µM (inactive)		> 100 µM (inactive)	53.7 µM (inactive)	28.2 µM (inactive)
O=C(O)Cc1ccc(Nc2nc3cc(C(F)(F)F)ccc3nc2C(=O)O)cc1	> 100 µM (inactive)	> 100 µM (inactive)	> 100 µM (inactive)	> 100 µM (inactive)	> 100 µM (inactive)	> 100 µM (inactive)	> 100 µM (inactive)	> 100 µM (inactive)	> 100 µM (inactive)	> 100 µM (inactive)	> 100 µM (inactive)	> 100 µM (inactive)	> 100 µM (inactive)	> 100 µM (inactive)		> 100 µM (inactive)	> 100 µM (inactive)	
